Values joined by “and” are separate entries in the source; they are usually repeats but may differ in a detail not shown here. Equal values may be shown once. Where a name gives a salt, the structure may show the parent alone.

T1 sequence (P05067 672-711 limits assumed): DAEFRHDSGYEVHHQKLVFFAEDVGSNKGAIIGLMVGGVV

One experiment addresses T1, Aβ (1-40) peptide (Homo sapiens, UniProt P05067).
T1 construct: 10 μL 0.5 mg/mL Aβ (1-40) peptide in 20% HFIP
In words: BAPA (Beta-Amyloid Peptide Aggregation, pH 6.0, filtration). The experiment is classed as biochemical. The conditions noted are these: Aβ (1-40) 33 μM, pH 6.0, 2 to 4 hours at room temperature; replicate values; letter = synthetic lot. Here is the method:
Each 96-well plate can therefore accommodate 11 samples+1 Congo Red control (0.039-5 μM final in 2-fold steps). • 4) Seal the plate with aluminum film and incubate for 10 minutes on ice. • 5) Raise the temperature to 37° C. and incubate for 3 to 5 hours (depends on the lot of the peptide). • 6) Remove the aluminum film and add 250 μL/well of 5 μM thioflavin T (ThT) [T-3516, Sigma-Aldrich] in 50 mM glycine-NaOH, pH 8.5. […] The purpose of this assays is to provide a higher volume method of assaying the amount of beta amyloid aggregation using an endpoint assay based on filtration. In this assay, hexafluoroisopropanol (HFIP) is used to break down the initial amyloid peptide to a monomer state and use a concentration of 33 μM which is high enough so that aggregation will occur at pH 6.0 in several hours. Methods: […] Then, we incubate for 2 to 4 hours at room temperature. […] We wash the filter plate with 100 μL of the same phosphate buffer. Aggregation was detected on a Microbeta counter after impregnating the filters with Meltilex (1450-441) and is corrected for background.
Take `O=C(O)c1ccccc1Nc1ccc(-c2ccc(Cl)cc2Cl)c(Cl)c1` [Example 86, 2-(2,2′,4′-Trichloro-biphenyl-4-ylamino)-benzoic acid]: the IC50 was > 10 µM and 89 µM and 37 µM.
The same measure, in the same setting: next, `O=C(O)c1ccccc1Nc1ccc(-c2cccc(Br)c2)c(Cl)c1` [Example 88, 2-(3′-Bromo-2-chloro-biphenyl-4-ylamino)-benzoic acid]: > 10 µM and 37 µM and 27 µM.
Same read-out and setting: under “2-{4-[2-(3,4-Dichloro-phenyl)-ethyl]-phenylamino}-benzoate-2-hydroxy-1,1-bis hydroxymethyl-ethyl-ammonium [Example 120]” stands more than 60 µM.
Still for that read-out and setting: under `Cc1cc(-c2cc(Cl)cc(Cl)c2)ccc1Nc1ccccc1C(=O)O` [Example 83, 2-(3′,5′-Dichloro-3-methyl-biphenyl-4-ylamino)-benzoic acid] stands 9 µM and 47 µM and 29 µM.
As to `Cc1cc(-c2ccc3c(c2)OCO3)ccc1Nc1ccccc1C(=O)O` [Example 85, 2-(4-1,3-Benzodioxol-5-yl-2-methyl-phenylamino)-benzoic acid], the 50% inhibitory concentration (IC50) was 8 µM and 77 µM and 45 µM.
As for `O=C(O)c1ccccc1Nc1ccc(-c2ccc(F)c(F)c2)c(Cl)c1` [Example 87, 2-(2-Chloro-3′,4′-difluoro-biphenyl-4-ylamino)-benzoic acid], the IC50 is > 10 µM and 15 µM and 32 µM.
The same measure, in the same setting: under `O=C(O)c1ccccc1Nc1ccc(CCc2ccc(Cl)c(Cl)c2)cc1` [Example 118, 2-{4-[2-(3,4-Dichloro-phenyl)-ethyl]-phenylamino}-benzoic acid monopotassium] stands more than 60 µM; under `Cc1cc(-c2cc(Br)cc(Br)c2)ccc1Nc1ccccc1C(=O)O` [Example 84, 2-(3′,5′-Dibromo-3-methyl-biphenyl-4-ylamino)-benzoic acid], 5 µM and 21 µM; under `O=C(O)c1ccccc1Nc1ccc(CCc2ccc(Cl)c(Cl)c2)cc1` [Example 119, 2-{4-[2-(3,4-Dichloro-phenyl)-ethyl]-phenylamino}-benzoic acid calcium salt (1:1)], more than 60 µM.

The target in a further experiment is T2, Aβ(1-40) (Homo sapiens, UniProt P05067).
T2 construct: […]; purchased Bachem, Torrance, Calif
T2 sequence (P05067 672-711 limits assumed): as above
The experiment is described as follows: BASST (Beta-Amyloid Self-Seeding, Thioflavin T), inhibitors of self-seeded amyloid fibril growth. In kind it is biochemical. The settings on record: 30 μM soluble Aβ(1-40), 37° C., 3 to 5 hours, thioflavin T fluorescence; replicate values; letter = synthetic lot; read-out: BASST (IC50 = μM). Here is the method:
(§1) An assay for inhibitors of self-seeded amyloid fibril growth
Assay Buffer—50 mM sodium phosphate, pH 7.5, 100 mM NaCl, 0.02% NaN3, 1 M urea (filter and store at 4° C.)
(§2) Typically, the solution should be stored until no lag phase is seen in the assay.
The following are the amounts of the components of the reaction mixture that result in each of the 50 assay wells:
• 1) Prepare the reaction mix above by mixing the components and storing on ice. • 2) Pipet 14.5 μL of reaction mixture into each of 50 wells of a polystyrene U-bottom 96-well microtiter plate (Corning 25881-96) on ice. • 3) Add 1.7 μL of diluted compound to be tested to each well in a column of eight, including solvent control. Serial 3-fold dilutions from 1 mM (100 μM final) in assay buffer−urea=7 dilutions+zero. Each 96-well plate can therefore accommodate 11 samples+1 Congo Red control (0.039-5 μM final in 2-fold steps). • 4) Seal the plate with aluminum film and incubate for 10 minutes on ice. • 5) Raise the temperature to 37° C. and incubate for 3 to 5 hours (depends on the lot of the peptide). • 6) Remove the aluminum film and add 250 μL/well of 5 μM thioflavin T (ThT) [T-3516, Sigma-Aldrich] in 50 mM glycine-NaOH, pH 8.5. Read fluorescence on a plate reader (ex=440 nm/20 nm; em=485 nm/20 nm) within 5 minutes. BAPA (Beta-Amyloid Peptide Aggregation)
With `O=C(O)c1ccccc1Nc1ccc(-c2ccc(Cl)cc2Cl)c(Cl)c1` [Example 86, 2-(2,2′,4′-Trichloro-biphenyl-4-ylamino)-benzoic acid], the half-maximal inhibitory concentration (IC50) turned out to be 18 µM.
The same measure, in the same setting: under `O=C(O)c1ccccc1Nc1ccc(-c2cccc(Br)c2)c(Cl)c1` [Example 88, 2-(3′-Bromo-2-chloro-biphenyl-4-ylamino)-benzoic acid] stands 10 µM.
On the same count and under the same terms, under `Cc1cc(-c2cc(Cl)cc(Cl)c2)ccc1Nc1ccccc1C(=O)O` [Example 83, 2-(3′,5′-Dichloro-3-methyl-biphenyl-4-ylamino)-benzoic acid] stands more than 100 µM.
Same read-out and setting: next, `Cc1cc(-c2ccc3c(c2)OCO3)ccc1Nc1ccccc1C(=O)O` [Example 85, 2-(4-1,3-Benzodioxol-5-yl-2-methyl-phenylamino)-benzoic acid]: 18 µM; `O=C(O)c1ccccc1Nc1ccc(-c2ccc(F)c(F)c2)c(Cl)c1` [Example 87, 2-(2-Chloro-3′,4′-difluoro-biphenyl-4-ylamino)-benzoic acid]: 50 µM.
Regarding `O=C(O)c1ccccc1Nc1ccc(CCc2ccc(Cl)c(Cl)c2)cc1` [Example 118, 2-{4-[2-(3,4-Dichloro-phenyl)-ethyl]-phenylamino}-benzoic acid monopotassium], the IC50 turned out to be 6 µM.
Consider `Cc1cc(-c2cc(Br)cc(Br)c2)ccc1Nc1ccccc1C(=O)O` [Example 84, 2-(3′,5′-Dibromo-3-methyl-biphenyl-4-ylamino)-benzoic acid], for which the IC50 was more than 100 µM.

Staying with this experiment, now noted: read-out: BASST (IC50 = μM).
For the molecule “2-{4-[2-(3,4-Dichloro-phenyl)-ethyl]-phenylamino}-benzoate-2-hydroxy-1,1-bis hydroxymethyl-ethyl-ammonium [Example 120]”, the IC50 came out at 3 µM.
For `O=C(O)c1ccccc1Nc1ccc(CCc2ccc(Cl)c(Cl)c2)cc1` [Example 119, 2-{4-[2-(3,4-Dichloro-phenyl)-ethyl]-phenylamino}-benzoic acid calcium salt (1:1)], the IC50 was determined as 3 µM.

In the next experiment the target is T2, Aβ(1-40). In words: BASSR (Beta-Amyloid Self-Seeding Radioassay), inhibitors of self-seeded amyloid fibril growth. The experiment is classed as biochemical.
Details: not given
Here is the method: BASSR (Beta-Amyloid Self-Seeding Radioassay)
as §1
Assay Buffer—50 mM sodium phosphate, pH 7.5, 100 mM NaCl, 0.02% NaN3, 1 M urea (filter and store at 4° C.).
as §2
^125I-labeled Aβ(1-40)—150K-350K cpm/μL in 100% acetonitrile—0.1% trifluoroacetic acid (TFA)—1% β-mercaptoethanol (aliquots stored at −20° C.). ^125I-labeled Aβ(1-40) can be made in accordance with the procedure set forth by H. LeVine, III in Neurobiol. Aging, 16, 755, (1995), which is hereby incorporated by reference, or this reagent may be purchased from Amersham, Arlington Heights, Ill.
The following are the amounts of the components of the reaction mixture sufficient for 50 assay wells:
• 1) Prepare reaction mixture above by mixing components and storing on ice. • 2) Pipet 14.5 μL of reaction mixture into each of 50 wells on a polypropylene U-bottom 96-well microtiter plate on ice. (Costar 3794). • 3) Add 1.7 μL of diluted compound to be tested to each well in a column of eight, including solvent control. Serial 3-fold dilutions from 1 mM (100 μM final) in assay buffer−urea=7 dilutions+zero. Each 96-well plate can therefore accommodate 11 samples+1 Congo Red control (0.039-5 μM final in 2-fold steps). • 4) Seal the plate with aluminum film (Beckman 538619) and incubate for 10 minutes on ice. • 5) Raise the temperature to 37° C. and incubate for 3 to 5 hours (depending on the lot of the peptide). • 6) Remove the aluminum film and add 200 μL/well of ice cold assay buffer with urea, collecting the radiolabeled fibrils by vacuum filtration through 0.2 μm pore size GVWP filters in 96-well plates (Millipore MAGV N22, Bedford, Mass.). Determine the radioactivity of the filters using standard methods well-known to those skilled in the art. BASST (Beta-Amyloid Self-Seeding, Thioflavin T)
For the molecule “2-{4-[2-(3,4-Dichloro-phenyl)-ethyl]-phenylamino}-benzoate-2-hydroxy-1,1-bis hydroxymethyl-ethyl-ammonium [Example 120]”, the IC50 was more than 100 µM.

Staying with this experiment, now noted: 30 μM soluble Aβ(1-40) + 125I-labeled Aβ(1-40), 37° C., 3 to 5 hours; replicate values; letter = synthetic lot; ppt = precipitate; V-shaped = inhibition followed by precipitation.
With `O=C(O)c1ccccc1Nc1ccc(-c2ccc(Cl)cc2Cl)c(Cl)c1` [Example 86, 2-(2,2′,4′-Trichloro-biphenyl-4-ylamino)-benzoic acid], the IC50 is 40 µM.
The same measure, in the same setting: next, `O=C(O)c1ccccc1Nc1ccc(-c2cccc(Br)c2)c(Cl)c1` [Example 88, 2-(3′-Bromo-2-chloro-biphenyl-4-ylamino)-benzoic acid]: more than 100 µM; `Cc1cc(-c2cc(Cl)cc(Cl)c2)ccc1Nc1ccccc1C(=O)O` [Example 83, 2-(3′,5′-Dichloro-3-methyl-biphenyl-4-ylamino)-benzoic acid]: more than 100 µM.
Take `Cc1cc(-c2ccc3c(c2)OCO3)ccc1Nc1ccccc1C(=O)O` [Example 85, 2-(4-1,3-Benzodioxol-5-yl-2-methyl-phenylamino)-benzoic acid]: the IC50 was more than 100 µM.
On the same count and under the same terms, under `O=C(O)c1ccccc1Nc1ccc(-c2ccc(F)c(F)c2)c(Cl)c1` [Example 87, 2-(2-Chloro-3′,4′-difluoro-biphenyl-4-ylamino)-benzoic acid] stands more than 100 µM.
On the same count and under the same terms, next, `O=C(O)c1ccccc1Nc1ccc(CCc2ccc(Cl)c(Cl)c2)cc1` [Example 118, 2-{4-[2-(3,4-Dichloro-phenyl)-ethyl]-phenylamino}-benzoic acid monopotassium]: more than 100 µM; `Cc1cc(-c2cc(Br)cc(Br)c2)ccc1Nc1ccccc1C(=O)O` [Example 84, 2-(3′,5′-Dibromo-3-methyl-biphenyl-4-ylamino)-benzoic acid]: more than 100 µM; `O=C(O)c1ccccc1Nc1ccc(CCc2ccc(Cl)c(Cl)c2)cc1` [Example 119, 2-{4-[2-(3,4-Dichloro-phenyl)-ethyl]-phenylamino}-benzoic acid calcium salt (1:1)]: more than 100 µM.

What is called IC50 is the concentration that inhibits the measured activity by half.

The record behind these values is patent US6972287B1, “Method of inhibiting amyloid protein aggregation and imaging amyloid deposits” (Pfizer Inc., priority 1999, dated 2005).
